From patent US10556860B2, “hTERT modulators and methods of use” (Arizona Board of Regents on Behalf of the University of …, priority 2015, dated 2020)

Assays:
MYC mRNA = experiment: qPCR of MYC mRNA in MCF7 cells; format: cell-based, human; settings: 72 h
Method: (§1) qPCR. MCF7 and melanoma cells were treated with GTC365 and BRACO-19 for 72 h. Total RNA was extracted using an RNeasy mini-prep kit (Qiagen) and quantitated by measuring absorbance at 260 nm. cDNA was synthesized using a Takara PrimeScript™ RT Reagent Kit with gDNA eraser and then used as a template for qPCR. The qPCR was performed using Kapa Probe Fast qPCR Master Mix with ABI Taqman probes of hTERT (Hs00972656_m1), BCL2 (HS00608023_m1, FAM-labeled) or MYC (Hs00153408_m1), and GAPDH (Hs02758991_g1, VIC-labeled). The Ct values were measured by running Rotor-Gene Q, and the relative quantity of hTERT, BCL2, and MYC mRNA was obtained compared to GAPDH as an internal control.
(§2) BCL2 is a downstream molecule to hTERT such that BCL2 expression is activated by hTERT to repress apoptosis. To further define the effect of GTC365 on the transcription of hTERT, the relative mRNA levels of MYC and BCL2 were determined by quantitative PCR analysis in MCF7 cells after treatment with GTC365 for 72 h. […] A series of GTC260 analogs were synthesized and their effect on hTERT gene expression in MCF7A and U87 cells determined (FIG. 7). […] Therefore, GTC365 directly repressed the transcription of hTERT and then led to a downstream decrease of BCL2 expression.

BCL2 mRNA = experiment: qPCR of BCL2 mRNA in MCF7 cells; format: cell-based, human; settings: 72 h
Method: as §1, §2

Compound: Cc1cc(NC(=O)NC(=O)c2ccccc2NC(=O)C(C)N)ccc1Oc1ncc(Br)cn1 (centres unmarked) [GTC260]
- effect on MYC mRNA level (MYC mRNA): no effect
- effect on BCL2 mRNA level (BCL2 mRNA): direct repression of hTERT transcription and the downstream molecule BCL2
